Source: ChEMBL document CHEMBL1909577, “Discovery of 3-hydroxy-4-cyano-isoquinolines as novel, potent, and selective inhibitors of human 11β-hydroxydehydrogenase 1 (11β-HSD1)” (Bioorg Med Chem Lett, 2011)
Converted amounts (≈) assume the structure as drawn.

How the values were obtained:
[1] = target: T1, 11-beta-hydroxysteroid dehydrogenase 1 (Mus musculus, UniProt P50172); assay: Inhibition of mouse 11beta-HSD1
Liver microsomes [2] = conditions: human, 10 min, 300 µM
Description: Metabolic stability of the compound in human liver microsomes assessed as stability rate per mg of protein at 300 uM after 10 mins by LC-MS/MS analysis in presence of NADPH

Liver = conditions: mouse, microsomes, 10 min, 300 µM
Description: Metabolic stability of the compound in mouse liver microsomes assessed as stability rate per mg of protein at 300 uM after 10 mins by LC-MS/MS analysis in presence of NADPH

Liver microsomes [3] = conditions: rat, 10 min, 300 µM
Description: Metabolic stability of the compound in rat liver microsomes assessed as stability rate per mg of protein at 300 uM after 10 mins by LC-MS/MS analysis in presence of NADPH

[4] = Aqueous solubility of the compound; type: physicochemical
[5] = Cmax in Balb/C mouse at 10 umol/kg, po; type: ADME, organism-based; set-up: dose 10 umol/kg, route oral; conditions: in vivo
[6] = Tmax in Balb/C mouse at 10 umol/kg, po; type: ADME, organism-based; conditions: in vivo
[7] = AUC (0 to 8 hrs) in Balb/C mouse at 10 umol/kg, po; type: ADME, organism-based; set-up: time < 8 hr, dose 10 umol/kg, route oral; conditions: plasma
[8] = target: T1, 11-beta-hydroxysteroid dehydrogenase 1; assay: Inhibition of 11beta-HSD1 in mouse 3T3L1 cells; type: cell-based, 3T3-L1
[9] = test system: UDP-glucuronosyltransferase (Mus musculus); assay: in vitro; conditions: human, liver microsomes
[10] = target: T2, 11-beta-hydroxysteroid dehydrogenase 1 (Homo sapiens, UniProt P28845); assay: Inhibition of human 11beta-HSD1 expressed in HEK293 cells assessed as conversion of [3H]-cortisone to [3H]-cortisol by scintillation plate reader; type: cell-based
[11] = Inhibition of cynomolgus monkey 11beta-HSD1; set-up: species or system Macaca fascicularis
[12] = target: T2, 11-beta-hydroxysteroid dehydrogenase 1; assay: Inhibition of 11beta-HSD1 in human HEK cells; type: cell-based, HEK293
11β-HSD1 (Mus musculus) = conditions: Homo sapiens

T1 sequence (P50172 whole entry): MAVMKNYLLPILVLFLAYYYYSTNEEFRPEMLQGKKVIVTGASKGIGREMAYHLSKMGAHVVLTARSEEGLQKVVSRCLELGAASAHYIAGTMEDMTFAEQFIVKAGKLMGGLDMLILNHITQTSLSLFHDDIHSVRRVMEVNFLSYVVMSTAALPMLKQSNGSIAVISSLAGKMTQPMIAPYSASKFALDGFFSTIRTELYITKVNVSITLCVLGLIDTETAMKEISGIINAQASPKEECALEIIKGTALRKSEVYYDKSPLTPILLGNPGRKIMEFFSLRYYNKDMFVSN
T2 sequence (P28845 whole entry): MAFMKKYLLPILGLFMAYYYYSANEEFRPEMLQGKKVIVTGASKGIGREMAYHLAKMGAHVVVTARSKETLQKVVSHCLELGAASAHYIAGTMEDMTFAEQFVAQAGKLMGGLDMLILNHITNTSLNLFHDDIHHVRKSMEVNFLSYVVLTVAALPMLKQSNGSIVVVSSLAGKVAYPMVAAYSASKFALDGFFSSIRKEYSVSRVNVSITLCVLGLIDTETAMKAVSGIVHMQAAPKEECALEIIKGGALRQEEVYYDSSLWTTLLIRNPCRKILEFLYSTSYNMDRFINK

N#Cc1c2c(c(-c3ccccc3)[nH]c1=O)CCCC2
IC50 [1]: 4350 nM

N#Cc1c(=O)[nH]c(SCc2ccccc2Cl)c2ccc(F)cc12
IC50 [1]: 14 nM | Stability (Liver microsomes [2]): 0.12 nmol/min | Stability (Liver): 0.1 nmol/min | Stability (Liver microsomes [3]): 0.05 nmol/min

N#Cc1c(O)nc(SCc2cccc(Cl)c2)c2c1CCCC2
IC50 [1]: 39 nM | solubility [4]: 1 µg/mL (≈ 3.02 µM)

N#Cc1ncccc1CSc1nc(O)c(C#N)c2c1CCCC2
IC50 [1]: 10 nM | solubility [4]: 38 µg/mL (≈ 118 µM) | Stability (Liver microsomes [2]): 0.04 nmol/min | Stability (Liver): 0.05 nmol/min | Stability (Liver microsomes [3]): 0.05 nmol/min

Oc1nc(SCc2ccccc2Cl)c2c(c1Br)CCCC2
IC50 [1]: 2270 nM

N#Cc1ncccc1CSc1nc(O)c(C#N)c2c1COCC2
IC50 [1]: 105 nM | solubility [4]: 238 µg/mL (≈ 734 µM) | Cmax [5]: 0.5 µM | Tmax [6]: 4 h | AUC(0-t) at 8 h [7]: 2.9 µM·h | IC50 [8]: 3.97 µM | Stability (Liver microsomes [2]): 0 nmol/min | Stability (Liver): 0.01 nmol/min | Stability (Liver microsomes [3]): 0 nmol/min | half-life [9]: 3 min

COc1ccccc1CSc1nc(O)c(C#N)c2c1CCCC2
IC50 [1]: 9 nM

N#Cc1c(O)nc(SCc2ccccc2Cl)nc1-c1ccccc1
IC50 [10]: 27 nM | IC50 [1]: 58 nM | IC50 [11]: 53 nM | Cmax [5]: 7.1 µM | Tmax [6]: 1 h | AUC(0-t) at 8 h [7]: 37 µM·h | IC50 [12]: 1100 nM | IC50 [8]: 2.85 µM | IC50 (11β-HSD1 (Mus musculus)): 58 nM | half-life [9]: > 200 min

N#Cc1c2c(c(SCc3c(Cl)cccc3Cl)[nH]c1=O)CCCC2
IC50 [1]: 3 nM | solubility [4]: 1 µg/mL (≈ 2.74 µM) | Stability (Liver microsomes [2]): 0 nmol/min | Stability (Liver): 0 nmol/min | Stability (Liver microsomes [3]): Unstable

N#Cc1c(O)nc(OCc2ccccc2Cl)c2c1CCCC2
IC50 [1]: 6 nM | solubility [4]: 1 µg/mL (≈ 3.18 µM) | Stability (Liver microsomes [2]): Unstable | Stability (Liver): Unstable | Stability (Liver microsomes [3]): Unstable

CS(=O)(=O)c1ccccc1CSc1nc(O)c(C#N)c2c1CCCC2
IC50 [1]: 10 nM | solubility [4]: 32 µg/mL (≈ 85.5 µM) | Stability (Liver microsomes [2]): 0 nmol/min | Stability (Liver): 0.11 nmol/min | Stability (Liver microsomes [3]): 0.19 nmol/min

N#Cc1c(O)nc(Sc2ccccc2Cl)c2c1CCCC2
IC50 [1]: 95 nM | solubility [4]: 1 µg/mL (≈ 3.16 µM) | Stability (Liver microsomes [2]): 0.07 nmol/min | Stability (Liver): 0.17 nmol/min | Stability (Liver microsomes [3]): 0.15 nmol/min

N#Cc1ccc(-c2c(O)nc(SCc3ccccc3Cl)c3c2CCCC3)cc1
IC50 [1]: 3830 nM | solubility [4]: 1 µg/mL (≈ 2.46 µM) | Stability (Liver microsomes [2]): 0.19 nmol/min | Stability (Liver): 0.18 nmol/min | Stability (Liver microsomes [3]): 0.3 nmol/min

N#Cc1c(O)nc(SCc2ccccc2Cl)c2c1CCOC2
IC50 [1]: 21 nM | solubility [4]: 8 µg/mL (≈ 24 µM) | Stability (Liver microsomes [2]): 0.12 nmol/min | Stability (Liver): 0.07 nmol/min | Stability (Liver microsomes [3]): 0.04 nmol/min

N#Cc1c(O)nc(SCC2CCC2)c2c1CCCC2
IC50 [1]: 33 nM | Stability (Liver microsomes [2]): 0 nmol/min | Stability (Liver): 0.16 nmol/min | Stability (Liver microsomes [3]): 0.24 nmol/min

N#Cc1c(O)nc(SCc2ccccc2Cl)c2c1CCN(Cc1ccccc1)C2
IC50 [1]: 4350 nM | Stability (Liver microsomes [2]): 0.08 nmol/min | Stability (Liver): 0.04 nmol/min | Stability (Liver microsomes [3]): 0 nmol/min

N#Cc1c(O)nc(SCCc2ccccc2Cl)c2c1CCCC2
IC50 [1]: 6 nM | solubility [4]: 1 µg/mL (≈ 2.9 µM) | Stability (Liver microsomes [2]): 0.18 nmol/min | Stability (Liver): 0.27 nmol/min | Stability (Liver microsomes [3]): 0.24 nmol/min
